Results from ChEMBL document CHEMBL5465560, “Selectivity Literature for EUbOPEN Chemogenomic Library” (2024).
Blank lines part the entries; values can stand above or below the compound they belong to.

How the values were obtained:
[1] = system: Mast/stem cell growth factor receptor Kit (Homo sapiens), P10721 [T670I]; assay: (§1) Selectivity interaction (Kinase panel (Z-LYTE Assay)) EUB0001632a KIT; details: at 10 µM
[2] = system: Mast/stem cell growth factor receptor Kit (Homo sapiens), P10721 [V559D,V654A]; assay: as §1; details: at 10 µM
[3] = system: Mast/stem cell growth factor receptor Kit (Homo sapiens), P10721 [V559D]; assay: as §1; details: at 10 µM
[4] = system: Mast/stem cell growth factor receptor Kit (Homo sapiens), P10721 [V560G]; assay: as §1; details: at 10 µM
[5] = target: Mast/stem cell growth factor receptor Kit (Homo sapiens, UniProt P10721); assay: as §1; details: at 10 µM
[6] = target: T1, Serine/threonine-protein kinase haspin (Homo sapiens) (UniProt Q8TF76); assay: Selectivity interaction (Kinase panel (Invitrogen)) EUB0000639a GSG2; details: at 200 nM
T1 sequence (whole entry): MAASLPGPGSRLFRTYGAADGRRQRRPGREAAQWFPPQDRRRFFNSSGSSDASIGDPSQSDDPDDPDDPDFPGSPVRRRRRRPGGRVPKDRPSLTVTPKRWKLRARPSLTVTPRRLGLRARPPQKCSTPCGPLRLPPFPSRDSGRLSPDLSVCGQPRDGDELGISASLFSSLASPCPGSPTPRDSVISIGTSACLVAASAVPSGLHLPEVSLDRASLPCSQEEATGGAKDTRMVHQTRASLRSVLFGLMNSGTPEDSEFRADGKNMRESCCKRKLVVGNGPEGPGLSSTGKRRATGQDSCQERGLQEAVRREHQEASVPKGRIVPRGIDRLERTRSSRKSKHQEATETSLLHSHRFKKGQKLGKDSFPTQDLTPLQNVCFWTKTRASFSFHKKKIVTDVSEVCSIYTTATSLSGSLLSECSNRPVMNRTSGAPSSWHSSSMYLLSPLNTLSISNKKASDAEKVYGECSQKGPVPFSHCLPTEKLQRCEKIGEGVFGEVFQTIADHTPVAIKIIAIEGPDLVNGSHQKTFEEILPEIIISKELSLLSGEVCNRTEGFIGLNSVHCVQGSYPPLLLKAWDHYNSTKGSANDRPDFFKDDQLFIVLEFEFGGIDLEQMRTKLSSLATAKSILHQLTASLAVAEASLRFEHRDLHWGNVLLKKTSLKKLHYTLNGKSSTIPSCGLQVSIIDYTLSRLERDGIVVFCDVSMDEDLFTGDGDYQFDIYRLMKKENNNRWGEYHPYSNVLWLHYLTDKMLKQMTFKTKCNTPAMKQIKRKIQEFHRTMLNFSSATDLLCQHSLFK

[7] = target: Mitogen-activated protein kinase 11 (Homo sapiens) (UniProt Q15759); assay: Selectivity interaction (Kinase panel (Invitrogen)) EUB0000639a MAPK11; details: at 200 nM
[8] = target: T2, Inhibitor of nuclear factor kappa-B kinase subunit epsilon (Homo sapiens) (UniProt Q14164); assay: Selectivity interaction (KinomeScan (DiscoverX)) EUB0000595a IKBKE; details: at 10 µM
T2 sequence (whole entry): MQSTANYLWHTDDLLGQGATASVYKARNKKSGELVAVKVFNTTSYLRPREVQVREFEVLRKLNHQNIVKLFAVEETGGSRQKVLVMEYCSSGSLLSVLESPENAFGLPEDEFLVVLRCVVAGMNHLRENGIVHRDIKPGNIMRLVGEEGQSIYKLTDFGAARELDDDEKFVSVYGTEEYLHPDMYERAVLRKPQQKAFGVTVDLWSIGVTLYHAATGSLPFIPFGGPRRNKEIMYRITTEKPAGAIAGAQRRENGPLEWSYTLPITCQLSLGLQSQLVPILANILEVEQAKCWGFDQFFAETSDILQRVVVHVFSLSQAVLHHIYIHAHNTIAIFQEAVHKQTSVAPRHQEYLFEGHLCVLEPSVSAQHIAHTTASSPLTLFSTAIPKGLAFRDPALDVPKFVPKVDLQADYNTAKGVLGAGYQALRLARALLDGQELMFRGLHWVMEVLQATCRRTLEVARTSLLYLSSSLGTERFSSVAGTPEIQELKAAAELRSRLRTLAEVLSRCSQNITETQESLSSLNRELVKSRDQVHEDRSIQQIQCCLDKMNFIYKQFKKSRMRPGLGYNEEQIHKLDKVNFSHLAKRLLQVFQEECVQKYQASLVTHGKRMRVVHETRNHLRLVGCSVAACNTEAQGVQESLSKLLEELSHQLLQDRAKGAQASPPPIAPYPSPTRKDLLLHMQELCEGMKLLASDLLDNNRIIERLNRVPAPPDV

[9] = target: Cyclin-dependent kinase-like 1 (Homo sapiens) (UniProt Q00532); assay: Selectivity interaction (KinomeScan (DiscoverX)) EUB0001079a CDKL1; details: at 1 µM
[10] = target: T3, Non-receptor tyrosine-protein kinase TNK1 (Homo sapiens) (UniProt Q13470); assay: Selectivity interaction (KinomeScan (DiscoverX)) EUB0000618a TNK1; details: at 10 µM
T3 sequence (whole entry): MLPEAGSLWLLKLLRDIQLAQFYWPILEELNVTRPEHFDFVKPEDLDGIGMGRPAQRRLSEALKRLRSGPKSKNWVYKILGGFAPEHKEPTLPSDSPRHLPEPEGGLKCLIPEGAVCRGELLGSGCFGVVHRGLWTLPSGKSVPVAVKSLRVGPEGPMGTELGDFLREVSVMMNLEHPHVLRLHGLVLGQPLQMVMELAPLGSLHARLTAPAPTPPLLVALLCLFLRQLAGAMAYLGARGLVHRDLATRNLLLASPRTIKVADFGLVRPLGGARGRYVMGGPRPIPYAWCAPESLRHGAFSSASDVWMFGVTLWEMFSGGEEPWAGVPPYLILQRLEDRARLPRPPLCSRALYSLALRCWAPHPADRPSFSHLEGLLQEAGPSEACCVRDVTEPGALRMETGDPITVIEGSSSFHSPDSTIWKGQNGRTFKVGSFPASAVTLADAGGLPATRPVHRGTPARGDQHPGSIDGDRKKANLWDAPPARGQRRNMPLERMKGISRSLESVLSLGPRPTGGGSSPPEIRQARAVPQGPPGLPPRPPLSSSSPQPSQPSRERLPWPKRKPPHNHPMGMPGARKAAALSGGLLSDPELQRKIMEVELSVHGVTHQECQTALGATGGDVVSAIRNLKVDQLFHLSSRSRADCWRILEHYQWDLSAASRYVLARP

Sequence of Mast/stem cell growth factor receptor Kit (Homo sapiens), P10721 [V559D,V654A] (P10721 whole entry V559D/V654A): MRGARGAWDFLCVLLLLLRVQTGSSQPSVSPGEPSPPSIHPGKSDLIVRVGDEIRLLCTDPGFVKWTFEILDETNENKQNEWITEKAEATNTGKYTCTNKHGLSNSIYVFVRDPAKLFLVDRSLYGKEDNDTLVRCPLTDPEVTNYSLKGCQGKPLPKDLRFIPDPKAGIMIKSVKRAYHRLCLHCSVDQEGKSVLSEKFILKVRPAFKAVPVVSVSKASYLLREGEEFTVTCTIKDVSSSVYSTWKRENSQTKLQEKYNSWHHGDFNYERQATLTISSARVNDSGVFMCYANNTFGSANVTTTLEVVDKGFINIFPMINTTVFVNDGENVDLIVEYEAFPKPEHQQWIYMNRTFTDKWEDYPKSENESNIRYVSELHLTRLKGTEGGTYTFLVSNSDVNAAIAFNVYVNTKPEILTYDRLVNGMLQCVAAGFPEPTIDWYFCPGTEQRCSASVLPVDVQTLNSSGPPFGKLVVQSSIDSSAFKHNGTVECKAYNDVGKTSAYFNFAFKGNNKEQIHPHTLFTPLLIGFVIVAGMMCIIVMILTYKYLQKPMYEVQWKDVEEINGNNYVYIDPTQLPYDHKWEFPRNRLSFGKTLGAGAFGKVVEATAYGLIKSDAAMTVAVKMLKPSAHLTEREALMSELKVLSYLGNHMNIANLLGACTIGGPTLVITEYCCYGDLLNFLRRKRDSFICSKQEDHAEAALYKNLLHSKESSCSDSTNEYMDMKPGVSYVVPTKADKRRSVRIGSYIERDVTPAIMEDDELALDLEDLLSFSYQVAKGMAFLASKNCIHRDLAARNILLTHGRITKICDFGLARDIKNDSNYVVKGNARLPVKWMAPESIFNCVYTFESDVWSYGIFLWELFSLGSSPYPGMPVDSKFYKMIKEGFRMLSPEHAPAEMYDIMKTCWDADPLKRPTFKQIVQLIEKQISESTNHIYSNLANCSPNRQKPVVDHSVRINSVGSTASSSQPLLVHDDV
Sequence of Cyclin-dependent kinase-like 1 (Homo sapiens) (Q00532 whole entry): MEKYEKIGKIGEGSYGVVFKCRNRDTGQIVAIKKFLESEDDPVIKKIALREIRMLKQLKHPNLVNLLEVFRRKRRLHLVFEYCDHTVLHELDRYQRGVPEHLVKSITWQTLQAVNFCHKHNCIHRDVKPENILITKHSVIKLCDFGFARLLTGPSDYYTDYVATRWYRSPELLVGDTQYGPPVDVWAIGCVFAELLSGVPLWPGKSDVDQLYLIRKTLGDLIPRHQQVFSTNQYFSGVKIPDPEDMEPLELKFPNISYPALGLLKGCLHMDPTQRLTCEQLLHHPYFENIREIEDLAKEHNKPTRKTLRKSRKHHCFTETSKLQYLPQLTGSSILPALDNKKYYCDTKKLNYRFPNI
Sequence of Mast/stem cell growth factor receptor Kit (Homo sapiens), P10721 [V559D] (P10721 whole entry V559D): as the sequence (P10721 whole entry V559D/V654A) above, with A654V counted along it
Sequence of Mast/stem cell growth factor receptor Kit (Homo sapiens), P10721 [T670I] (P10721 whole entry T670I): as the sequence (P10721 whole entry V559D/V654A) above, with D559V, A654V, T670I counted along it
Sequence of Mitogen-activated protein kinase 11 (Homo sapiens) (Q15759 whole entry): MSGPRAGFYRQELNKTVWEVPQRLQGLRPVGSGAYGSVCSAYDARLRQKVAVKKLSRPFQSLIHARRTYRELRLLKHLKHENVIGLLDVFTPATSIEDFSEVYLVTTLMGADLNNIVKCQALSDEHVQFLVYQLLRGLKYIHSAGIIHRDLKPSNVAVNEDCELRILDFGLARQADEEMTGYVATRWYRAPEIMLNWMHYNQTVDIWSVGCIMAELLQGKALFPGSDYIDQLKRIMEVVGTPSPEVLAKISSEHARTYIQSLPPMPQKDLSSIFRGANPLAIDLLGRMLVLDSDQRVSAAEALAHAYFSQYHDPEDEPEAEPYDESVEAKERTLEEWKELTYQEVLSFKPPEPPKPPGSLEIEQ
Sequence of Mast/stem cell growth factor receptor Kit (P10721 whole entry): as the sequence (P10721 whole entry V559D/V654A) above, with D559V, A654V counted along it
Sequence of Mast/stem cell growth factor receptor Kit (Homo sapiens), P10721 [V560G] (P10721 whole entry V560G): as the sequence (P10721 whole entry V559D/V654A) above, with D559V, V560G, A654V counted along it

% of control [1]: 0.683%
% of control [2]: 0.874%
% of control [3]: 6.85%
% of control [4]: 1.94%
% of control [5]: 7.07%
SMILES: Cn1cc(-n2cnc3c(NCc4nc5cc(Cl)c(Cl)cc5[nH]4)nc(N4CCOCC4)nc32)cn1

% of inhibition [6]: 41.1%
% of inhibition [7]: 5.62%
SMILES: CC[C@@H]1[C@H](F)C(=O)N[C@@H]1COc1nccc2cc(C(N)=O)c(OC)cc12 [ZIMLOVISERTIB]

SMILES: COCC(=O)NC/C=C/c1ccc2ncnc(Nc3ccc(Oc4ccc(C)nc4)c(C)c3)c2c1 [CP-724714]
% of control [8]: 100%

SMILES: Nc1cnc(N2CCc3cc(S(=O)(=O)Nc4c(F)cc(Cl)cc4F)cc(N4CCCC4=O)c32)nc1 [TP-020n]
% of control [9]: 85%

SMILES: O[C@H]1CC[C@H](Nc2ncc3nc(Nc4c(F)cc(F)cc4F)n([C@H]4CCOC4)c3n2)CC1
% of control [10]: 97%
